Measured values as given in ChEMBL document CHEMBL1136902, “Binaphthyl scaffolded peptoids via ring-closing metathesis reactions and their anti-bacterial activities” (2009).
Values after ≈ are worked out from the molar mass of the structure shown.

System: Staphylococcus aureus
Assay: Antibacterial activity against Staphylococcus aureus ATCC 6538
Format: functional

Structure (SMILES) | MIC [µg/mL]
COC(=O)C1CC=CCOc2ccc(cc2)C[C@H](NC(C)=O)C(=O)N[C@@H](CCCCN)C(=O)N1 (stereo partly specified) | 62.5 (≈ 132 µM)
COC(=O)C1CC=CCOc2ccc(cc2)C[C@H](NC(C)=O)C(=O)N[C@@H](CCCNC(=N)N)C(=O)N1 (stereo partly specified) | 62.5 (≈ 124 µM)
C=CCOc1ccc2ccccc2c1-c1c(OCC(=O)N[C@H](CCCCN)C(=O)OC)ccc2ccccc12.Cl | 32
COC(=O)C1C/C=C\COc2ccc(cc2)CC(NC(C)=O)C(=O)NC(CCCCNC(=N)N)C(=O)N1 (stereo unspecified) | 62.5 (≈ 121 µM)
COC(=O)[C@H]1C/C=C/Cn2cc(c3ccccc32)CC(=O)N[C@H](CCCCN)C(=O)N1 | 125 (≈ 293 µM)
COC(=O)[C@H]1C/C=C/Cn2cc(c3ccccc32)CCCC(=O)N[C@H](CCCCN)C(=O)N1 | 125 (≈ 275 µM)
COC(=O)[C@H]1C/C=C/Cn2cc(c3ccccc32)CCC(=O)N[C@H](CCCCN)C(=O)N1 | 125 (≈ 284 µM)
CN[C@H](CC(C)C)C(=O)N[C@H]1C(=O)N[C@@H](CC(N)=O)C(=O)N[C@H]2C(=O)N[C@H]3C(=O)N[C@H](C(=O)N[C@H](C(=O)O)c4cc(O)cc(O)c4-c4cc3ccc4O)[C@H](O)c3ccc(c(Cl)c3)Oc3cc2cc(c3O[C@@H]2O[C@H](CO)[C@@H](O)[C@H](O)[C@H]2O[C@H]2C[C@](C)(N)[C@H](O)[C@H](C)O2)Oc2ccc(cc2Cl)[C@H]1O [VANCOMYCIN] | 1.95 (≈ 1.35 µM)

Further compounds by falling MIC, results first:

MIC [µg/mL] | Structure (SMILES)
15 | COC(=O)[C@@H]1C/C=C\COc2ccc3ccccc3c2-c2c(ccc3ccccc23)OCC(=O)N[C@H](CCCCN)C(=O)N1.Cl
15 (≈ 23.7 µM) | COC(=O)[C@@H]1C/C=C/Cc2ccc3c(c2)c2cc(ccc2n3C(=O)OC(C)(C)C)[C@H](NC(C)=O)C(=O)N[C@H](CCCCN)C(=O)N1
15 | C=CCOc1ccc2ccccc2c1-c1c(OCCCC(=O)N[C@H](CCCCN)C(=O)N[C@H](CC=C)C(=O)OC)ccc2ccccc12.Cl
8 | C=CCOc1ccc2ccccc2c1-c1c(OCC(=O)N[C@H](CCCCNC(=N)N)C(=O)N[C@H](CC=C)C(=O)OC)ccc2ccccc12.Cl
8 | COC(=O)[C@@H]1C/C=C\COc2ccc3ccccc3c2-c2c(ccc3ccccc23)OCC(=O)N[C@H](CCCCNC(=N)N)C(=O)N1.Cl
8 | C=CCOc1ccc2ccccc2c1-c1c(OCCCC(=O)N[C@H](CCCCNC(=N)N)C(=O)N[C@H](CC=C)C(=O)OC)ccc2ccccc12.Cl
7 (≈ 10.1 µM) | COC(=O)[C@@H]1C/C=C/Cc2cc3ccccc3c(c2OC)-c2c(OC)c(cc3ccccc23)CC(NC(C)=O)C(=O)N[C@H](CCCCN)C(=O)N1 (stereo partly specified)
4 | C=CCOc1ccc2ccccc2c1-c1c(OCC(=O)N[C@H](CCCCN)C(=O)N[C@H](CC=C)C(=O)OC)ccc2ccccc12.Cl
